# Test results reported in patent US5183828A, “Polyhydroxybenzoic acid derivatives” (priority 1990, dated 1993).
# Where “and” joins values, the source holds several entries; their conditions need not be identical. Equal values may be shown once. Where a name gives a salt, the structure may show the parent alone.
# How the values were obtained:
# [1] = free radical scavenging ability (destruction of diphenylpicrylhydrazyl), Table 7; conditions: 100 μM diphenylpicrylhydrazyl in acetone; test compound 25 μM, 2.5 μM (footnote)
# Text: It is believed that the antineoplastic activity of the compounds of this invention is due in parts to their ability to scavenge free-radicals. Additionally, the compounds of this invention are cancer protective agents and this utility also may be a manifestation of their free-radical scavenging capability. Free-radical scavenging agents may also be useful in detoxifying mammals in whom an excess of free radicals is a cause and/or result of the toxicity. Other possible uses of free radical scavengers are to inhibit protaglandin transformation, leucotriene interconversion and lipogenesis, to act as inflammatory modulators and as food additive or preservatives to prevent lipid oxidation. The free radical scavenging ability of the compounds of the invention was determined by measuring the destruction of the stable free radical, diphenylpicrylhydrazyl, in the presence of the test compound in a manner similar to that reported by […] and Herzmann, Naturwiss, 47, 133-134 (1960). […] The test compound was added at a final concentration of 25 μM and the rate of reduction of absorpotion at […] was observed. Table 7 below gives the free radical scavenging abilities of the compounds of this invention expresses as the initial rate of decrease in optical density units/min.
# [2] = tested on: B16 Melanoma; experiment: activity vs B16 melanoma (T/C % survival), Table 4; assay type: in vivo, mice; conditions: nine days, >120 significant
# Procedure: The drugs were also used to treat melanotic melanoma B16. The protocol for testing against this tumor is as follows:
# 0.5 ml. of a tumor homogenate prepared by homogenizing 1 g. of tumor with 10 ml. of cold balanced solution is implanted ip in groups of 10 B6 C3 F1 mice. The drug is administered daily for a total of nine days starting one day after tumor inoculation. The results are expressed as mean survival time of treated group versus control group (T/C) as a percent.
# [3] = tested on: SRS-A biosynthesis; experiment: effect of drug on SRS-A biosynthesis; assay type: in vivo; conditions: 10 mg/kg, i.v.; ovalbumin-sensitized guinea-pigs
# Procedure: Compounds according to this invention were also able to affect SRS-A biosynthesis, also in vivo. In this determination, male Hartley guinea-pigs (200-300 g) were sensitized with a single intraperitoneal injection of ovalbumin (10 mg) in 1 ml of 0.9% w/v NaCl solution (saline). The animals were used for study on days 28-45, following the ovalbumin injection. Guinea-pigs this sensitized were anaesthetized with an intraperitoneal injection of urethane (2 g/kg), and the carotid artery and jugular vein cannulated for measurement of arterial blood pressure and to facilitate intravenous drug administration. Animals were ventilated with a Harvard small animal respirator set at a stroke volume of 2.5 cc and a rate of 40 breaths per min. Ventilatory pressure (cmH2 O) was measured with a Statham pressure transducer from a side arm off the tracheal cannula. […]
# Plasma SRS-A was determined as follows: Arterial blood was drawn from the carotid artery of the guinea-pigs into sodium citrate (0.38%) containing indomethacin (10^-4 M). […]
# SRS-A was bioassayed on the guinea-pig ileum incubated in Tyrode solution containing 10^-6 M atropine sulphate and 10^-6 M pyrilamine maleate and aerated with 95% O2 and 5% CO2. Changes in tension were measured isotonically with an Adaps rotary motion transducer and recorded on a Linear recorder. […]
# [4] = tested on: L1210 leukemia; experiment: antitumor activity in L1210 leukemia (percent increase in survival time), Table 2; assay type: in vivo, mice; conditions: Mus musculus, L1210, 192 h, 8 days; for ILS at 300 mg/kg: 300 mg/kg ip daily
# Procedure: Testing of the compounds of this invention against L-1210 lymphoid leukemia were carried out as follows: L-1210 leukemia was maintained by weekly passage of 10^5 L-1210 cells intraperitoneally into DBA/2 mice. Diluted ascitic fluid, 0.1 ml. (10^5 cells), was administered ip to female B6D2 F1 mice weighing about 20 g. Drugs were administered ip 24 hours after tumor transplantation and injections were continued daily for a total of eight days. A group of control mice receiving only the injection medium were maintained. Table 2 which follows gives the antitumor activity against L-1210 leukemia for certain compounds of this invention. In the table, column 1 gives the name of the compound, column 2 the dose in mg./kg., and column 3 the percent increase in survival time over controls at each dose level.
Structure (SMILES),initial rate of decrease in optical density (518 nm) [1],T/C % (mean survival time) ([2]; 25 mg/kg daily),T/C % (mean survival time) ([2]; 50 mg/kg daily),T/C % (mean survival time) ([2]; 100 mg/kg daily),T/C % (mean survival time) ([2]; 200 mg/kg daily),T/C % (mean survival time) ([2]; 400 mg/kg daily),T/C % (mean survival time) ([2]; 800 mg/kg daily),% Inhibition of SRS-A Biosynthesis [3],ILS at 157 mg/kg ([4]; 157 mg/kg ip daily),ILS at 200 mg/kg ([4]; 200 mg/kg ip daily),ILS at 238 mg/kg ([4]; 238 mg/kg ip daily),ILS at 300 mg/kg [4],"T/C % (mean survival time) ([2]; 50 mg/kg daily, listed as ethyl gallamidate.HCl, hydrochloride)","T/C % (mean survival time) ([2]; 100 mg/kg daily, listed as ethyl gallamidate.HCl, hydrochloride)","T/C % (mean survival time) ([2]; 200 mg/kg daily, listed as ethyl gallamidate.HCl, hydrochloride)","T/C % (mean survival time) ([2]; 400 mg/kg daily, listed as ethyl gallamidate.HCl, hydrochloride)",ILS at 450 mg/kg ([4]; 450 mg/kg ip daily)
"NC(=NO)c1ccc(O)c(O)c1 [3,4-dihydroxybenzamidoxime.HCl, 3,4-dihydroxybenzamidoximehydrochloride]",0.718 units/min.,119%,127%,129%,134%,117%,toxic,25%,132%,43.5%,46.9%,73.9%,,,,,
"CCOC(=N)c1cc(O)c(O)c(O)c1 [ethyl 3,4,5-trihydroxybenzamidate-HCl, Ethyl 3,4,5-trihydroxybenzamidate hydrochloride]",3.730 units/min.,105%,,,,,,29%,,,,42.3%,109% and 104%,121% and 109% and 107%,121% and 125% and 122%,124% and 156% and 137%,58.4%
